For orientation: IC50 means the concentration needed to halve the response being measured. Read a low IC50 as greater potency in that assay.

Where two headings read alike, the source gives them in different places.

The assay has as its target T1, KRas G12D mutant (Homo sapiens, UniProt P01116, G12D).
T1 construct: fused on or other part: His tag, used for capture on nickel-coated plates
Kind of assay: Ras GTP binding domain inhibition assay (Cy3-GTP/Cy5-GTP competition). As to conditions: for IC50: cell-free, 100 nM Cy3-GTP or Cy5-GTP. The method, then: The following method was developed as specific assay for the following proteins: KRas wild type, KRas Q61H mutant, KRas G12C mutant, KRas G12D mutant, HRas wild type, Rac-1, and Rho-A.
• 25 mM Tris-HCl, pH 7.4 • 27 mM KCl • 137 mM NaCl • 1 mM MgCl2 • 1 mM DTT
• 50 mM Tris-HCl, pH 7.0 • 1 mM MgCl2 • 1 mM DTT
The small GTPases proteins: KRas wild type. KRas Q61H mutant, KRas G12C mutant, KRas G12D mutants, HRas wild type, Rac-1, and Rho-A were expressed as His-tagged proteins. In addition, the Guanosine nucleotide Exchange Factor (GEF) Sos protein (residues 556-1049) was expressed as a His-tagged protein. In cells, the guanine nucleotide exchange factor Sos protein promotes activation of Ras proteins by stimulating an exchange of GDP for GTP. The inclusion of Sos to the Ras GTP binding domain inhibition assay may be considered as an alternative representation of physiological cellular conditions for evaluating the inhibitory activity of some of the tested small molecules.
For the assay, all purified small GTPases proteins were diluted in Buffer-I or Buffer-II to a final concentration of 10-30 μg/mL. 200 μL of each diluted protein was added to a nickel-coated 96-well plate and incubated overnight at 4° C. Then the protein solution was discarded and 200 μL of Buffer-I or Buffer-II was added to each well in the presence of 1% DMSO. Compounds to be tested were added to the protein-coated wells at final concentration of 20 μM, and incubated for 3 hours at room temperature with and without […] of Sos added to the final hour of the incubation. When performing IC50 measurements a serial dilution of all tested concentrations was added. Then Cy3-GTP or Cy5-GTP was added to each well to a final concentration of 100 nM. The labeled GTP was incubated for 45 minutes at room temperature. Following GTP incubation, wells were washed 3× in Buffer-I or Buffer-II and 200 μL of Buffer-I or Buffer-II was added to each well. Following washes, the amount of bound labeled-GTP was measured using a SpectraMax M3 (Molecular Devices).

Setting [1] is: with SOS, read-out: KRas G12D mutant + SOS: % inh.
Where [2] appears, read: without SOS, read-out: KRas G12D mutant: % inh.

Take `COc1cccc(-c2sc3nc(-c4nc(C)cn4C)nc(N[C@@H]4CC[C@H](OC)C4)c3c2C)c1F` [drawing 1031]: the inhibition at 20 µM lay within 26 to 50% under setting [1] and 1 to 25% under setting [2].

With `CO[C@H]1CC[C@@H](Nc2nc(-c3nc(C)cn3C)nc3sc(-c4cccc5[nH]ncc45)c(C)c23)C1` [drawing 1032], the inhibition at 20 µM reads like this: under setting [1], 26 to 50%; under setting [2], 26 to 50%.

On to `CO[C@H]1CC[C@@H](Nc2nc(-c3nccn3C)nc3sc(-c4ccn(C(C)C)n4)c(C4=CC=CCC=C4)c23)C1` [drawing 1063], for which the IC50 lay in the range of 1 to 4.99 µM.

For the molecule `Cc1c(-c2ccn(C)n2)sc2nc(-c3nccn3C)nc(NCCCS(C)(=O)=O)c12` [drawing 1064], the IC50 is 5 to 10 µM. On the same count and under the same terms, the figure for `Cc1c(-c2ccn(C)n2)sc2nc(-c3nccn3C)nc(NCCCC(=O)N(C)C)c12` [drawing 1065] is 5 to 10 µM; for `Cc1c(-c2ccn(C)n2)sc2nc(-c3nccn3C)nc(NCCOC(=O)N(C)C)c12` [drawing 1066] it is 5 to 10 µM; for `CO[C@H]1CC[C@@H](Nc2nc(-c3nccn3C)nc3sc(-c4ccn(C(C)C)n4)c(C)c23)C1` [drawing 1067] it is 5 to 10 µM. The molecule `CO[C@H]1C[C@@H](Nc2nc(-c3nccn3C)nc3sc(C(=O)NC(C)C)c(-c4ccccc4)c23)C1` [drawing 1068] showed an IC50 of 5 to 10 µM. The molecule `COCCNC(=O)c1sc2nc(-c3nccn3C)nc(N[C@H]3C[C@@H](OC)C3)c2c1-c1ccccc1` [drawing 1069] displayed an IC50 of 5 to 10 µM. `CO[C@H]1C[C@@H](Nc2nc(-c3nccn3C)nc3sc(C(=O)N4CCOCC4)c(-c4ccccc4)c23)C1` [drawing 1070] showed an IC50 of 5 to 10 µM. `CO[C@H]1CC[C@@H](Nc2nc(-c3nccn3C)nc3sc(C(=O)NC(C)C)c(-c4ccccc4)c23)C1` [drawing 1072] gave an IC50 of 5 to 10 µM. `COCCNC(=O)c1sc2nc(-c3nccn3C)nc(N[C@@H]3CC[C@H](OC)C3)c2c1-c1ccccc1` [drawing 1073]: the IC50 was in the range of 5 to 10 µM. `CO[C@H]1CC[C@@H](Nc2nc(-c3nccn3C)nc3sc(C(=O)N4CCCC4)c(-c4ccccc4)c23)C1` [drawing 1074] had a concentration for half-maximal inhibition (IC50) of 5 to 10 µM. Turning to `CO[C@H]1CC[C@@H](Nc2nc(-c3nccn3C)nc3sc(C(=O)N4CCOCC4)c(-c4ccccc4)c23)C1` [drawing 1075], the IC50 lay in the range of 5 to 10 µM.
